Series [1] has as its system human colon carcinoma cell line, SW-480. Kind of series: Sulforhodamine B (SRB) tumor cell growth inhibition assay. The format is cell-based. The conditions noted are these: SW-480 cells, six days continuous exposure; for inhibition at 100 µM: Homo sapiens, SW480, 144 h. The protocol: The compounds of this invention were assayed for their growth inhibitory activity on the human colon carcinoma cell line, SW-480 obtained from ATCC (Rockville, Md.), to ascertain the degree of growth inhibition (Skehan et al., J. Natl. Cancer Instit. 82:1107-1112, 1990). Growth inhibition of this cell line is indicative of a benefit on precancerous lesions and neoplasms. The cell line and growth assay employed for such experiments are well characterized, and are used to evaluate the anti-neoplastic properties of compounds (Piazza, Cancer Research Vol. 57, pp. 2452-2459, 1997). The assay is used by the United States National Cancer Institute in its screening program for new anti-cancer drugs.
Drug stock solutions were made in 100% DMSO and were then diluted with RPMI media for cell culture testing. All drug solutions were prepared fresh on the day of testing. The cultured cells were obtained at passage #99 and grown in RPMI media supplemented with 5% fetal calf serum, and 2 mM glutamine, […] penicillin, 100 U/ml streptomycin, and 0.25 μg/ml amphotericin. The cultures were maintained in a humidified atmosphere of 95% air and 5% CO2 at 37° C. The cultures were passaged at preconfluent densities using a solution of 0.05% trypsin and 0.53 mM EDTA. Cells were plated at 1000 cells/well for 96 well flat-bottom microtiter plates.
Tumor cell growth inhibition was assessed using the Sulforhodamine B (SRB) protein binding assay. In this assay, tumor cells were plated in 96-well plates and treated with drug-containing media for six days (continuous exposure). For each plate, 6 wells were designated as no treatment controls, six wells as vehicle (0.1% DMSO) controls, and the remaining wells for drug dilutions with three wells per drug concentration. At the end of the exposure period, the cells were fixed and stained with sulforhodamine B, a protein binding dye. The dye was then solubilized, and the optical density of the resulting solution was determined on a 96-well plate reader. The mean optical density of the treated wells was then divided by the mean optical density in the control wells (6 wells of each) to determine the effect of the drug on the cells. Dye intensity is proportional to the number of cells or amount of protein per well. The resultant “percent inhibition” values, which then represents the degree of growth inhibition, for the indicated compounds from the Examples are tabulated in Table 1.
For one compound of this invention, an IC50 value was determined. An IC50 value is equivalent to the concentration of compound needed to inhibit tumor cell growth by 50%. The IC50 value was obtained graphically by plotting and connecting the mean growth inhibition values for each drug concentration tested. The experiment included three wells per drug concentration. Concentration was plotted on a log scale on the X-axis.

Series [2] deals with T1, purified cyclooxygenase Type 1 (COX I) (Ovis aries, UniProt P05979).
T1 construct: The COX I was purified from ram seminal vesicles; from tissue; host or cells: ram seminal vesicles
T1 sequence (P05979 25-600): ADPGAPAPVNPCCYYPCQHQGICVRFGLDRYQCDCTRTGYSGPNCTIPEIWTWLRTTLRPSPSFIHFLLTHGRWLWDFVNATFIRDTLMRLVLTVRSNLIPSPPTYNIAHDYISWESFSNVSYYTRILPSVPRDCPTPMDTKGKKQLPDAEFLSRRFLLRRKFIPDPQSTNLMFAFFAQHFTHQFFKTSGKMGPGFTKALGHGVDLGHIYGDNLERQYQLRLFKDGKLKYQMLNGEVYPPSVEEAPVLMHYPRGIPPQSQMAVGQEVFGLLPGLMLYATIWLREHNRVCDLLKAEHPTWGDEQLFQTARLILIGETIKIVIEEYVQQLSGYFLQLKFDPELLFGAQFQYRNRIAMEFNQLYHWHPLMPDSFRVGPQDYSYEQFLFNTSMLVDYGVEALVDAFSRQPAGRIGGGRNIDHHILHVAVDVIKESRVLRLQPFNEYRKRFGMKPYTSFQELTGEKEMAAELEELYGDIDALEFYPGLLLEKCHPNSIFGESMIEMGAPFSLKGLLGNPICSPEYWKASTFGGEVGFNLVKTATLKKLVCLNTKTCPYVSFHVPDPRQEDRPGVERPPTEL
Description: Cyclooxygenase (COX I) inhibition, purified enzyme. The format is biochemical. The conditions noted are these: 100 μM compound, arachidonic acid 100 μM, 2.0 min at 37° C., COX I from ram seminal vesicles. The method, then:
COX I catalyzes the formation of prostaglandins and thromboxane by the oxidative metabolism of arachidonic acid. Compounds of this invention, as well as a positive control, (sulindac sulfide) were evaluated to determine whether they inhibited purified cyclooxygenase Type 1 (see Table 3 below).
The COX I was purified from ram seminal vesicles, as described by Boopathy, R. and Balasubramanian, J. 239:371-377, 1988. COX I activity was assayed as described by Evans, A. T. et al., “Actions of Cannabis Constituents on Enzymes Of Arachidonate Metabolism Anti-Inflammatory Potential,” Biochem. Pharmacol., 36:2035-2037, 1987. Purified COX I was incubated with arachidonic acid (100 μM) for 2.0 min at 37° C. in the presence or absence of test compounds. The assay was terminated by the addition of TCA, and COX I activity was determined by absorbance at […].

Molecules are shown by their SMILES. A value given as a limit tells only on which side of the number the result lay.

For the compound `c1ccc(-c2nnc(SCc3ccc4ccccc4c3)c3ccccc23)cc1` [Example 20, 1-(2′-Naphthylmethylthio)-4-Phenylphthalazine], the “% Growth Inhibition at 100 μM” value in series [1] was under 50%. The “COX I % Inhibition (100 μM)” value in series [2] is reported as under 25%.

As usually defined, the inhibition is the drop in the measured response relative to a control, in per cent. The low end stands for a response near the control, the high end for a response far below the control. In series [2], `CSc1ccc(/C=C2/C(C)=C(CC(=O)O)c3cc(F)ccc32)cc1` [Sulindac sulfide, sulindac sulfide, reference compound] came in with an inhibition at 100 µM of 97%.

A word on the melting point: it is the temperature, or range, at which the solid turns liquid. `c1ccc(CSc2nnc(-c3ccccc3)c3ccccc23)cc1` [Example 1, 1-Benzylthio-4-Phenylphthalazine] displayed a melting point of 92 °C. The inhibition at 100 µM in series [1] is 85%. Besides, in series [2], the inhibition at 100 µM was 30%.

Turning to `CCSc1nnc(-c2ccccc2)c2ccccc12` [Example 35, 1-Ethylthio-4-Phenylphthalazine], the melting point came to 93 °C.

`C=CCSc1nnc(-c2ccccc2)c2ccccc12` [Example 2, 1-(2-Propenylthio)-4-Phenylphthalazine] gave a melting point of 83 °C. In addition, the inhibition at 100 µM in series [1] came to 87%. Moreover, 100 µM produced 62% inhibition in series [2].

Take `Fc1ccc(CSc2nnc(-c3ccccc3)c3ccccc23)cc1` [Example 11, 1-(4-Fluorobenzylthio)-4-Phenylphthalazine]: the melting point stood at 104 °C. In series [1], this compound came in with an inhibition at 100 µM of 76%. In series [2], this compound came in with an inhibition at 100 µM of under 25%.

For the compound `CC(C)(C)OC(=O)CSc1nnc(-c2ccccc2)c2ccccc12` [Example 21, 1-(t-Butyl 2′Mercaptoacetate)-4-Phenylphthalazine], the “% Growth Inhibition at 100 μM” value in series [1] was determined as 51%.

With `Clc1cccc(CSc2nnc(-c3ccccc3)c3ccccc23)c1` [Example 4, 1-(3-Chlorobenzylthio)-4-Phenylphthalazine], the melting point came out at 85 °C. The inhibition at 100 µM in series [1] was 81%. Moreover, the inhibition at 100 µM in series [2] was under 25%.

`CSc1nnc(-c2ccccc2)c2ccccc12` [Example 3, 1-Methylthio-4-Phenylphthalazine] yielded a melting point of 147 °C. The compound further came in with an inhibition at 100 µM in series [1] of under 50%. The inhibition at 100 µM in series [2] came to 73%.

Take `COC(=O)Cc1nnc(Sc2ccccc2)c2ccccc12` [Example 19, Methyl-2-(4-Phenylthiophthalazinyl)acetate]: the “% Growth Inhibition at 100 μM” value in series [1] worked out at 61%. For the same compound, in series [2], the “COX I % Inhibition (100 μM)” value is recorded as under 25%.

Compound `O=S(=O)(Cc1ccccc1)c1nnc(-c2ccccc2)c2ccccc12` [Example 18, 1-(Benzylsulfonyl)-4-Phenylphthalazine] showed an inhibition at 100 µM in series [2] of 81%.

For the compound `Clc1cccc(CSc2nnc(-c3ccccn3)c3ccccc23)c1` [Example 22, 1-(3-Chlorobenzylthio)-4-(2-Pyridyl)-Phthalazine], the inhibition at 100 µM was 88% in series [1] and under 25% in series [2].

The values above are taken from patent US6486158B1, “[4,5]-fused-3,6-disubstituted-pyridazines with sulfur-containing substituents in position three for the treatment of neoplasia” (Cell Pathways, Inc., priority 1998, dated 2002).
